Square brackets hold non-standard residues; d marks the D form. Peptide text beside a SMILES is read from it. * marks the point of attachment. PEG4 = NCCOCCOCCOCCOCCC(=O)O; X1 = O=C(Cn1cc(CCCF)nn1)*
How the values were obtained:
Format in all cases: cell-based, human
H2122 = test: Cold [19F] standard compound uptake in cells treated with apoptotic inducer, LC/MS (H2122); conditions: cold standard compound 10 μM, 2 h, 1 mM 5FU for 2 days, % uptake normalized per mg protein extract
Protocol: (§1) When cells grown in 6-well plates reached 80% confluence, the growth medium was replaced with 2 ml of fresh medium containing 1 mM of 5FU. After two days of apoptotic induction, the standard compound was added into the cultures (control and 5FU treated) at a final concentration of 10 μM. The cells were cultured in the incubator for 2 hours for compound uptake. Then, (in the case of experiments involving the use of caspase-3 inhibitors as blockers, the inhibitor was added to the cells 1 hour early before the addition of standard compound). 100 μl of cell culture medium for each sample was collected, and the cells were harvested by centrifugation. Cell pellets were washed twice with 1×PBS, and lysed in 100 μl of lysis buffer. Both cell lysate and medium were boiled for 5 minutes to denature proteins, cooled down on ice, then 100 μl of chloroform/methanol (50/50 ratio) were added. After vortexing and extraction, the samples were centrifuged in Eppendorf tubes in a micro centrifuge at 13000 rpm for 15 minutes at 4 C. 50 μl of the supernatant was transferred to an HPLC vial. The amounts of compound (or product of caspase-3 cleavage) inside the cells and in the medium were measured by LC/MS. The % uptake=total amount of cell uptake/total amount of compound X 100%. The % uptake was normalized by the amount of cellular protein extract (mg): % Uptake/mg protein extracts.

A498 [1] = test: Cold [19F] standard compound uptake in cells treated with apoptotic inducer, LC/MS (A498); conditions: cold standard compound 10 μM, 2 h, 1 mM 5FU for 2 days, % uptake normalized per mg protein extract
Protocol: as §1

HT29 [2] = test: Cold [19F] standard compound uptake in cells treated with apoptotic inducer, LC/MS (HT29); conditions: cold standard compound 10 μM, 2 h, 1 mM 5FU for 2 days, % uptake normalized per mg protein extract
Protocol: as §1

U87 [3] = test: Cold [19F] standard compound uptake in cells treated with apoptotic inducer, LC/MS (U87); conditions: cold standard compound 10 μM, 2 h, 1 mM 5FU for 2 days, % uptake normalized per mg protein extract
Protocol: as §1

U87 [4] = test: [18F]-tracer compound uptake in cancer cell lines treated with apoptotic inducer 5FU (U87); conditions: [18F]-tracer 10 μCi/well, 2 h incubation, 1 mM 5FU for 2 days; % uptake normalized per mg protein extract
Protocol: (§2) Cells grown overnight and having reached about 80% confluence in 6-well plates were exposed to 1 mM of apoptotic inducer 5FU for 2 days in a cell culture incubator. The [18F]-labeled tracer was added into each well (triplicates for control and 5FU treated) at 10 μCi/well. (in case of experiments involving the use of caspase-3 inhibitors as blockers, the inhibitor was added to the cells 1 hour before the addition of the [18F]-tracer). The cells were then incubated for two hours. Cells were collected by scrape and centrifugation. Cell pellets were washed twice with 1λ PBS. The amount of tracer inside the cells and in the medium was measured by y-counter. The % Uptake=total CPM inside cells/total tracer CPM×100%. The % Uptake was normalized by the amount of cellular protein extract (mg): % uptake/mg protein extracts.

HT29 [5] = test: [18F]-tracer compound uptake in cancer cell lines treated with apoptotic inducer 5FU (HT29); conditions: [18F]-tracer 10 μCi/well, 2 h incubation, 1 mM 5FU for 2 days; % uptake normalized per mg protein extract
Protocol: as §2

A498 [6] = test: [18F]-tracer compound uptake in cancer cell lines treated with apoptotic inducer 5FU (A498); conditions: [18F]-tracer 10 μCi/well, 2 h incubation, 1 mM 5FU for 2 days; % uptake normalized per mg protein extract
Protocol: as §2

SMILES: CC(C)[C@H](NC(=O)[C@H](CCC(=O)O)NC(=O)[C@H](CC(=O)O)NC(=O)Cn1cc(CCCF)nn1)C(=O)N[C@@H](CC(=O)O)C(=O)N[C@@H](C)C(=O)NCCOCCOCCOCCOCCC(=O)O [Compound 21] (X1-DEVDA[PEG4]-OH)
- percent uptake H2122 (H2122): 1.3%
- percent uptake A498 (A498 [1]): 2.1%
- percent uptake HT29 (HT29 [2]): 1.1%
- percent uptake U87 (U87 [3]): 2.0%

SMILES: CC(C)[C@H](NC(=O)[C@H](CCC(=O)O)NC(=O)[C@H](CC(=O)O)NC(=O)Cn1cc(CCCF)nn1)C(=O)N[C@@H](CC(=O)O)C(=O)NCC(=O)N[C@@H](CCCCN)C(=O)N[C@@H](CCCCN)C(=O)N[C@@H](CCCCN)C(=O)N[C@@H](CCCCN)C(N)=O [Compound 27] (X1-DEVDGKKKK-NH2)
- percent uptake H2122 (H2122): 2.0%
- percent uptake A498 (A498 [1]): 4.5%
- percent uptake HT29 (HT29 [2]): 1.7%
- percent uptake U87 (U87 [3]): 2.5%

SMILES: CC(C)[C@H](NC(=O)[C@H](CCC(=O)O)NC(=O)[C@H](CC(=O)O)NC(=O)Cn1cc(CCC[18F])nn1)C(=O)N[C@@H](CC(=O)O)C(=O)N[C@@H](C)C(=O)NCCOCCOCCOCCOCCC(=O)O [^18F-21]
- percent uptake U87 (U87 [4]): 2.1%
- percent uptake HT29 (HT29 [5]): 2.1%
- percent uptake A498 (A498 [6]): 1.8%

SMILES: CC(C)[C@H](NC(=O)[C@H](CCC(=O)O)NC(=O)[C@H](CC(=O)O)NC(=O)C1OC(CNC(=O)Cn2cc(CCC[18F])nn2)C(O)C(O)C1O)C(=O)N[C@@H](CC(=O)O)C(=O)NCC(N)=O (stereo partly drawn) [^18F-49]
- percent uptake A498 (A498 [6]): 1.5%

SMILES: CC(C)[C@H](NC(=O)[C@H](CCC(=O)O)NC(=O)[C@H](CC(=O)O)NC(=O)C1OC(CNC(=O)Cn2cc(CCC[18F])nn2)C(O)C(O)C1O)C(=O)N[C@@H](CC(=O)O)C(=O)N[C@@H](C)C(=O)NCCOCCOCCOCCOCCC(=O)O (stereo partly drawn) [^18F-56]
- percent uptake U87 (U87 [4]): 2.1%
- percent uptake HT29 (HT29 [5]): 1.9%
- percent uptake A498 (A498 [6]): 2.1%
